PMC9684503 (Communications Biology, 2022)
Where a name gives a salt, the structure may show the parent alone. Read-outs that look alike come from different tables or passages of the source.

Target: T1, rat VMAT2-His (Rattus norvegicus, UniProt Q01827)
T1 construct: The ORF of rat VMAT2 was subcloned into a pFastBac vector; His; made in house; host or cells: Sf9 insect cells (baculovirus)
Assay: Differential scanning fluorimetry (DSF) with CPM dye: change of melting temperature of purified VMAT2
Assay type: binding
Settings: for ΔTm at 12 µM / ΔTm at 37 µM / ΔTm at 10 µM / ΔTm at 30 µM / ΔTm at 90 µM / ΔTm at 270 µM / ΔTm at 11 µM / ΔTm at 33 µM: read-out: ΔTm
Experimental: To screen purified VMAT2 by DSF we expressed the rat VMAT2 protein, as VMAT2-His, in SF9 insect cells using the baculovirus expression system. The transporter was solubilized and purified in n-Dodecyl-β-D-maltoside (DDM)/cholesterol hemisuccinate (CHS) micelles by immobilized metal affinity chromatography (IMAC) and size exclusion chromatography (SEC). […] Screening was performed using DSF and the thiol-reactive dye 7-diethylamino-3-(4-maleimidophenyl)-4-methylcoumarin (CPM), an approach that monitors changes to the protein melting temperature (Tm) upon compound binding. Using CPM or other dyes, DSF-based assays have successfully been used in molecular-based screenings[34],[35]. […] DSF screening was performed in 384 well plates using the thiol-sensing dye 7-diethylamino-3-(4-maleimidophenyl)-4-methylcoumarin (CPM) (Merck). […] Protein melting curves were determined using a LightCycler 480 ii RT-PCR system (Roche), with a temperature ramp increasing from 25 to 95 °C at a rate of 2 °C/min. Data analysis was performed using an in-house software that automatically determines the protein midpoint melting temperature (Tm) based on the second derivative of the melting curves or using the HTSDSF explorer as described in ref. [58]. […] 6 μl of this mix was dispensed to each well of 384 well plates using a Multidrop™ Combi Reagent Dispenser (Thermo Scientific). […] All initial hits were then subjected to an initial validation in triplicates with a compound concentration of 200 μM and a ΔTm > 5× the standard deviation (SD) cut off. […] Processing of the data from the primary screening and the concentration-dependent validation was performed as reported.

[1] = Table S2 dose response, compound 0,12 µM
[2] = Table S2 dose response, compound 0,37 µM
[3] = Table S2 dose response, compound 10 µM
[4] = Table S2 dose response, compound 30 µM
[5] = Table S2 dose response, compound 90 µM
[6] = Table S2 dose response, compound 270 µM
[7] = Table S2 dose response, compound 1,11 µM
[8] = Table S2 dose response, compound 3,33 µM
[9] = Table S1, primary hits, average change in melting temperature vs controls, triplicates

T1 sequence (Q01827 whole entry): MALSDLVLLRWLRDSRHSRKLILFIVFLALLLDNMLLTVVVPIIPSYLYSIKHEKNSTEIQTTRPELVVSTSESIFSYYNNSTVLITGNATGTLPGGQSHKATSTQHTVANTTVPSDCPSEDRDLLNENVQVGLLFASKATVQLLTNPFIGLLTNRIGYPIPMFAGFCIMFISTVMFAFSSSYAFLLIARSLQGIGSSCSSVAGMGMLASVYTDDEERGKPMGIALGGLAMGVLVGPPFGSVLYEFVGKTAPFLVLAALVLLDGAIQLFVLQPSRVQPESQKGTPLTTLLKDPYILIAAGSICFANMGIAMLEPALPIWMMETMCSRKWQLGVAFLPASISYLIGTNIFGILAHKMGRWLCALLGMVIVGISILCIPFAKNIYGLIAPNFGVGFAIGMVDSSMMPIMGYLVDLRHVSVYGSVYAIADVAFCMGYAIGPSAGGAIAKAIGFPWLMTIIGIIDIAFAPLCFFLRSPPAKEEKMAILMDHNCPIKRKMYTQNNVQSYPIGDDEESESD

Row | SMILES | ΔTm at 12 µM [1] [°C] | ΔTm at 37 µM [2] [°C] | ΔTm at 10 µM [3] [°C] | ΔTm at 30 µM [4] [°C] | ΔTm at 90 µM [5] [°C] | ΔTm at 270 µM [6] [°C] | ΔTm at 11 µM [7] [°C] | ΔTm at 33 µM [8] [°C] | ΔTm [9] | further results
1 | CC(C)COCC(CN(Cc1ccccc1)c1ccccc1)N1CCCC1 (stereo not shown) [Bepridil hydrochloride] | -0.78 | -0.68 | -1.08 | -1.2 | -1.63 | -3.8 | -0.75 | -0.93 | – | –
2 | CCCCCCC[N+](CC)(CC)CCCCc1ccc(Cl)cc1.Cc1ccc(S(=O)(=O)[O-])cc1 [Clofilium tosylate] | – | – | – | – | – | – | – | – | – | ΔTm (270 µM): -2,26 oC; ΔTm [3]: -0,06 oC; ΔTm [4]: -0,15 oC; ΔTm [5]: -0,36 oC
3 | CCSc1ccc2c(c1)N(CCCN1CCN(C)CC1)c1ccccc1S2.O=C(O)CC(O)C(=O)O.O=C(O)CC(O)C(=O)O [Thiethylperazine dimalate] | – | – | – | – | – | – | – | – | – | ΔTm (11 µM): -0,77 oC; ΔTm (12 µM): -0,61 oC; ΔTm (33 µM): -0,78 oC; ΔTm (37 µM): -0,58 oC; ΔTm (270 µM): -3,69 oC; ΔTm [3]: -1,01 oC; ΔTm [4]: -1,34 oC; ΔTm [5]: -2,15 oC
4 | COC(=O)[C@H]1[C@H]2C[C@@H]3c4[nH]c5cc(OC)ccc5c4CCN3C[C@H]2C[C@@H](OC(=O)c2cc(OC)c(OC)c(OC)c2)[C@@H]1OC [Reserpine] | – | – | – | – | – | – | – | – | – | ΔTm at 10 µM: 13.5 °C; ΔTm at 11 µM: 13.6 °C; ΔTm at 12 µM: 13.7 °C; ΔTm at 30 µM: 13.9 °C; ΔTm at 33 µM: 13.6 °C; ΔTm at 37 µM: 13.7 °C; ΔTm at 90 µM: 14 °C; ΔTm at 270 µM: 13.7 °C
5 | C1CCC(C(CC2CCCCN2)C2CCCCC2)CC1 (stereo not shown) [Perhexiline maleate] | – | – | -0.18 | -0.27 | -1.17 | -3.23 | – | – | – | –
6 | C[C@@H]1C[C@H]2[C@@H]3C[C@H](F)C4=CC(=O)C=C[C@]4(C)[C@@]3(Cl)[C@@H](O)C[C@]2(C)[C@H]1C(=O)COC(=O)C(C)(C)C [Clocortolone pivalate] | – | – | – | – | – | – | – | – | 1,04 ± 0,11 oC | –
7 | CCCc1nn(C)c2c(=O)[nH]c(-c3cc(S(=O)(=O)N4CCN(C)CC4)ccc3OCC)nc12 [Sildenafil] | 0.43 | 0.04 | 0.11 | 0.1 | 0.39 | 1.04 | 0.04 | 0.09 | 1,10 ± 0,14 oC | –
8 | CC(C)(C)c1ccc(C(O)CCCN2CCC(C(O)(c3ccccc3)c3ccccc3)CC2)cc1 (stereo not shown) [Terfenadine] | – | – | 0.21 | 0.24 | -0.01 | -0.6 | – | – | -13,22 ± 0,13 oC | –
9 | CN(C)CCCN1c2ccccc2Sc2ccc(C(F)(F)F)cc21 [Triflupromazine hydrochloride] | – | – | – | – | – | – | – | – | – | ΔTm: -4,15 ± 0, 03 oC; ΔTm at 10 µM: -0.1 °C; ΔTm at 30 µM: -0.1 °C; ΔTm at 90 µM: -0.84 °C; ΔTm at 270 µM: -2.21 °C
10 | CN1CCN(CCCN2c3ccccc3Sc3ccc(C(F)(F)F)cc32)CC1 [Trifluoperazine dihydrochloride] | – | – | – | – | – | – | – | – | – | ΔTm: -6,15 ± 0, 08 oC; ΔTm at 10 µM: -0.69 °C; ΔTm at 30 µM: -0.28 °C; ΔTm at 90 µM: -0.23 °C; ΔTm at 270 µM: -1.05 °C
11 | CN1CCC(=C2c3ccccc3Sc3ccccc32)CC1 [Pimethixene maleate] | – | – | 0.15 | -0.18 | -0.14 | -1.59 | – | – | – | –
12 | O=C(c1ccc(F)cc1)C1CCN(CCn2c(=O)[nH]c3ccccc3c2=O)CC1 [Ketanserin tartrate hydrate] | – | – | 1.16 | 1.17 | 0.95 | 2.18 | – | – | 3,12 ± 0,24 oC | –
13 | C#CCN(C)[C@H](C)Cc1ccccc1 [Selegiline hydrochloride] | – | – | 0.3 | 0.19 | 0.28 | – | – | – | – | ΔTm at 11 µM: 0.31 °C; ΔTm at 12 µM: 0.33 °C; ΔTm at 33 µM: 0.32 °C; ΔTm at 37 µM: 0.38 °C; ΔTm at 270 µM: 0.36 °C
14 | CC(C)(C)NC(=O)[C@@H]1C[C@@H]2CCCC[C@@H]2CN1C[C@@H](O)[C@H](Cc1ccccc1)NC(=O)[C@H](CC(N)=O)NC(=O)c1ccc2ccccc2n1 [Saquinavir mesylate] | -0.17 | -0.28 | -0.91 | -0.7 | -0.55 | -1.64 | -0.49 | -0.65 | – | –
15 | CC(NCCC(c1ccccc1)c1ccccc1)c1ccccc1 (stereo not shown) [Fendiline hydrochloride] | – | – | -0.22 | -0.24 | -1.16 | -3.27 | – | – | – | –
16 | Fc1ccc(C(OCCN2CCN(CCCc3ccccc3)CC2)c2ccc(F)cc2)cc1 [GBR 12909 dihydrochloride] | -0.02 | -0.01 | -1.07 | -1.67 | -2.3 | -5.4 | 0.05 | -0.34 | -17,11 ± 0,01 oC | –
17 | CN1CCCC(n2nc(Cc3ccc(Cl)cc3)c3ccccc3c2=O)CC1 (stereo not shown) [Azelastine HCl] | – | – | -0.6 | 0.35 | 0.23 | 0.55 | – | – | 0,85 ± 0,24 oC | –
18 | C[C@H](CCC(=O)O)[C@H]1CC[C@H]2[C@@H]3C(=O)C[C@@H]4CC(=O)CC[C@]4(C)[C@H]3CC(=O)[C@]12C [Dehydrocholic acid] | – | – | 0.39 | 0.66 | 0.53 | 1.43 | – | – | 1,51 ± 0,28 oC | –
19 | CC(CCc1ccccc1)NCC(O)c1ccc(O)c(C(N)=O)c1 (stereo not shown) [Labetalol hydrochloride] | – | – | 0.27 | 0.42 | 0.1 | 0.24 | – | – | 0,81 ± 0,07 oC | –
20 | CCCCC(CC)CN1CN(CC(CC)CCCC)CC(C)(N)C1 (stereo not shown) [Hexetidine] | -0.09 | -0.06 | -0.28 | -0.3 | -0.46 | -1.54 | -0.02 | -0.07 | – | –
21 | C[C@H](CCC(=O)O)[C@H]1CC[C@H]2[C@@H]3[C@H](O)C[C@@H]4C[C@H](O)CC[C@]4(C)[C@H]3CC[C@]12C [Chenodiol] | -0.11 | -0.01 | 0.64 | 0.35 | 0.57 | 2.24 | 0.17 | 0.19 | 1,98 ± 0,15 oC | –
22 | OC(c1cc(C(F)(F)F)nc2c(C(F)(F)F)cccc12)C1CCCCN1 (stereo not shown) [Mefloquine hydrochloride] | -0.02 | 0.04 | 0.1 | 0.21 | 0.09 | 0.08 | 0 | -0.11 | -11,15 ± 0,23 oC | –
